Measurements published in PubChem BioAssay (NCI).
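Following 48 hours of exposure in 96-well plates, responses at five concentrations were used to interpolate endpoints linearly. The concentration for full growth arrest is given as TGI.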

Tests used:
Assay in all cases: DTP human tumour cell line panel, 48 h
PC-3 prostate = tested on: PC-3 prostate
MALME-3M melanoma = tested on: MALME-3M melanoma
HOP-62 NSCLC = tested on: HOP-62 NSCLC
A549 NSCLC = tested on: A549 NSCLC
SK-MEL-5 melanoma = tested on: SK-MEL-5 melanoma
NCI/ADR-RES ovarian = tested on: NCI/ADR-RES ovarian
MDA-MB-231 breast = tested on: MDA-MB-231 breast
HCT-15 colon = tested on: HCT-15 colon
NCI-H460 lung = tested on: NCI-H460 lung
SF-539 CNS = tested on: SF-539 CNS
UACC-257 melanoma = tested on: UACC-257 melanoma
SR leukemia = tested on: SR leukemia
SF-295 CNS = tested on: SF-295 CNS
K-562 leukemia = tested on: K-562 leukemia
A498 renal = tested on: A498 renal
DU-145 prostate = tested on: DU-145 prostate
SN12C renal = tested on: SN12C renal
NCI-H522 lung = tested on: NCI-H522 lung
NCI-H23 lung = tested on: NCI-H23 lung
UACC-62 melanoma = tested on: UACC-62 melanoma
786-0 renal = tested on: 786-0 renal
MOLT-4 leukemia = tested on: MOLT-4 leukemia
CAKI-1 renal = tested on: CAKI-1 renal
MDA-MB-435 = tested on: MDA-MB-435
LOX IMVI melanoma = tested on: LOX IMVI melanoma
HL-60(TB) leukemia = tested on: HL-60(TB) leukemia
CCRF-CEM leukemia = tested on: CCRF-CEM leukemia
OVCAR-3 ovarian = tested on: OVCAR-3 ovarian
MCF7 breast = tested on: MCF7 breast
U251 CNS = tested on: U251 CNS
SK-OV-3 ovarian = tested on: SK-OV-3 ovarian
T-47D breast = tested on: T-47D breast
SW-620 colon = tested on: SW-620 colon
ACHN renal = tested on: ACHN renal
COLO 205 colon = tested on: COLO 205 colon
SK-MEL-2 melanoma = tested on: SK-MEL-2 melanoma
OVCAR-4 ovarian = tested on: OVCAR-4 ovarian
SF-268 CNS = tested on: SF-268 CNS
M14 melanoma = tested on: M14 melanoma
HOP-92 NSCLC = tested on: HOP-92 NSCLC
OVCAR-5 ovarian = tested on: OVCAR-5 ovarian
SNB-19 CNS = tested on: SNB-19 CNS
MDA-N = tested on: MDA-N
RPMI-8226 leukemia = tested on: RPMI-8226 leukemia
SNB-75 CNS = tested on: SNB-75 CNS
OVCAR-8 ovarian = tested on: OVCAR-8 ovarian
HT29 colon = tested on: HT29 colon
HS 578T breast = tested on: HS 578T breast
HCT-116 colon = tested on: HCT-116 colon
EKVX NSCLC = tested on: EKVX NSCLC
TK-10 renal = tested on: TK-10 renal
RXF 393 renal = tested on: RXF 393 renal
SK-MEL-28 melanoma = tested on: SK-MEL-28 melanoma
NCI-H226 lung = tested on: NCI-H226 lung
IGROV1 ovarian = tested on: IGROV1 ovarian
KM12 colon = tested on: KM12 colon
HCC-2998 colon = tested on: HCC-2998 colon
UO-31 renal = tested on: UO-31 renal
BT-549 breast = tested on: BT-549 breast

O=C(ON=C1c2ccccc2C(Br)C(Br)c2ccccc21)c1cc([N+](=O)[O-])cc([N+](=O)[O-])c1 (stereo unspecified)
TGI (PC-3 prostate): > 73.5 µM
TGI (MALME-3M melanoma): 33 µM
TGI (HOP-62 NSCLC): 34.3 µM
TGI (A549 NSCLC): 75.7 µM
TGI (SK-MEL-5 melanoma): 30.7 µM
TGI (NCI/ADR-RES ovarian): 40.5 µM
TGI (MDA-MB-231 breast): 35.6 µM
TGI (HCT-15 colon): 42.7 µM
TGI (NCI-H460 lung): 38.2 µM
TGI (SF-539 CNS): 32.8 µM
TGI (UACC-257 melanoma): 33.2 µM
TGI (SR leukemia): 26.9 µM
TGI (SF-295 CNS): > 88.9 µM
TGI (K-562 leukemia): 45.3 µM
TGI (A498 renal): 33.1 µM
TGI (DU-145 prostate): 66 µM
TGI (SN12C renal): 35.8 µM
TGI (NCI-H522 lung): 14.3 µM
TGI (NCI-H23 lung): 40.1 µM
TGI (UACC-62 melanoma): 38.5 µM
TGI (786-0 renal): 28.7 µM
TGI (MOLT-4 leukemia): 45.1 µM
TGI (CAKI-1 renal): 47.9 µM
TGI (MDA-MB-435): 35.3 µM
TGI (LOX IMVI melanoma): 28.8 µM
TGI (HL-60(TB) leukemia): 0.422 µM
TGI (CCRF-CEM leukemia): 3.65 µM
TGI (OVCAR-3 ovarian): 35.5 µM
TGI (MCF7 breast): 48 µM
TGI (U251 CNS): 30.2 µM
TGI (SK-OV-3 ovarian): 66.8 µM
TGI (T-47D breast): 76.7 µM
TGI (SW-620 colon): 40.5 µM
TGI (ACHN renal): 45 µM
TGI (COLO 205 colon): 40 µM
TGI (SK-MEL-2 melanoma): > 71 µM
TGI (OVCAR-4 ovarian): 48.2 µM
TGI (SF-268 CNS): 35.7 µM
TGI (M14 melanoma): 33.6 µM
TGI (HOP-92 NSCLC): 39.8 µM
TGI (OVCAR-5 ovarian): 43.8 µM
TGI (SNB-19 CNS): 56.8 µM
TGI (MDA-N): 48.8 µM
TGI (RPMI-8226 leukemia): 37 µM
TGI (SNB-75 CNS): 30.2 µM
TGI (OVCAR-8 ovarian): 36.5 µM
TGI (HT29 colon): 37.7 µM
TGI (HS 578T breast): 61.6 µM
TGI (HCT-116 colon): 32.5 µM
TGI (EKVX NSCLC): 59.8 µM
TGI (TK-10 renal): 45.8 µM
TGI (RXF 393 renal): 36.6 µM
TGI (SK-MEL-28 melanoma): 34.6 µM
TGI (NCI-H226 lung): 48.6 µM
TGI (IGROV1 ovarian): 26.6 µM
TGI (KM12 colon): 37.4 µM
TGI (HCC-2998 colon): 68.3 µM

O=C(O)C(/C=C/c1ccccc1)c1ccccc1 (stereo unspecified)
TGI (PC-3 prostate): > 100 µM
TGI (MALME-3M melanoma): > 100 µM
TGI (HOP-62 NSCLC): > 100 µM
TGI (A549 NSCLC): > 100 µM
TGI (SK-MEL-5 melanoma): > 100 µM
TGI (NCI/ADR-RES ovarian): > 100 µM
TGI (MDA-MB-231 breast): > 100 µM
TGI (HCT-15 colon): > 100 µM
TGI (NCI-H460 lung): > 100 µM
TGI (SF-539 CNS): > 100 µM
TGI (UACC-257 melanoma): > 100 µM
TGI (SR leukemia): > 100 µM
TGI (SF-295 CNS): > 100 µM
TGI (K-562 leukemia): > 100 µM
TGI (A498 renal): > 100 µM
TGI (DU-145 prostate): > 100 µM
TGI (SN12C renal): > 100 µM
TGI (UO-31 renal): > 100 µM
TGI (NCI-H522 lung): > 100 µM
TGI (NCI-H23 lung): > 100 µM
TGI (UACC-62 melanoma): > 100 µM
TGI (786-0 renal): > 100 µM
TGI (MOLT-4 leukemia): > 100 µM
TGI (LOX IMVI melanoma): > 100 µM
TGI (HL-60(TB) leukemia): 75.1 µM
TGI (CCRF-CEM leukemia): > 100 µM
TGI (OVCAR-3 ovarian): > 100 µM
TGI (MCF7 breast): > 100 µM
TGI (U251 CNS): > 100 µM
TGI (SK-OV-3 ovarian): > 100 µM
TGI (T-47D breast): > 100 µM
TGI (SW-620 colon): > 100 µM
TGI (ACHN renal): > 100 µM
TGI (COLO 205 colon): > 100 µM
TGI (SK-MEL-2 melanoma): > 100 µM
TGI (SF-268 CNS): > 100 µM
TGI (M14 melanoma): > 100 µM
TGI (HOP-92 NSCLC): > 100 µM
TGI (OVCAR-5 ovarian): > 100 µM
TGI (SNB-19 CNS): > 100 µM
TGI (MDA-N): > 100 µM
TGI (RPMI-8226 leukemia): > 100 µM
TGI (SNB-75 CNS): > 100 µM
TGI (OVCAR-8 ovarian): > 100 µM
TGI (HT29 colon): > 100 µM
TGI (HS 578T breast): > 100 µM
TGI (BT-549 breast): > 100 µM
TGI (HCT-116 colon): > 100 µM
TGI (EKVX NSCLC): > 100 µM
TGI (TK-10 renal): > 100 µM
TGI (RXF 393 renal): > 100 µM
TGI (SK-MEL-28 melanoma): > 100 µM
TGI (NCI-H226 lung): > 100 µM
TGI (IGROV1 ovarian): > 100 µM
